# Results: patent US20260083815A1, “COMPOSITION FOR INHIBITING TOXICITY OF NANOPARTICLES AND ENVIRONMENTALLY-DERIVED FINE PARTICLES” (AJOU UNIVERSITY INDUSTRY-ACADEMIC COOPERATION FOUNDATION, priority 2019, published 2026)
# Like-named read-outs stand apart in the source and are kept apart here.
# Legend:
# microglia [1] = conditions: 24 hours
# Protocol: Microglia cultured by the cell culture method of Example 1 was treated with 0.1 μg/μl of MNPs@SiO2(RITC) (average diameter of 50 nm), silica nanoparticles (SiO2, average diameter of 50 nm), silver nanoparticles (Ag, average diameter of 20 nm), gold nanoparticles (Au, average diameter of 10 nm), quantum dot nanoparticles (CdSe, average diameter of 10 nm), polystyrene microplastics (PS, average diameter of 2 μm and 100 nm), urban particulate matters (UPM, NIST 1648A), silica nanoparticles (SiO2, average diameter of 30 nm), titanium oxide nanoparticles (TiO2, average diameter of 40 nm), and carbon nanotubes (MWCNT, average diameter of 25 nm) for 24 hours, and then images were taken using fluorescence and optical microscopes (Axio Vert 200M fluorescence microscopy, Zeiss, Jena, Germany). Fluorescence of MNPs@SiO2(RITC) (average diameter of 50 nm) and quantum dot nanoparticles (CdSe, average diameter of 10 nm) which are fluorescent were photographed also.
# microglia [2] = conditions: 0.1 μg/μl of each of 11 nanoparticles/particulate matters, 24 hours, formazan absorbance at 490 nm
# Protocol: Microglia cultured by the cell culture method of Example 1 were treated with 0.1 μg/μl of MNPs@SiO2(RITC) (average diameter of 50 nm), silica nanoparticles (SiO2, average diameter of 50 nm), silver nanoparticles (Ag, average diameter of 20 nm), gold nanoparticles (Au, average diameter of 10 nm), quantum dot nanoparticles (CdSe, average diameter of 10 nm), polystyrene microplastics (PS, average diameter of 2 μm and 100 nm), urban particulate matters (UPM, NIST 1648A), silica nanoparticles (SiO2, average diameter of 30 nm), titanium oxide nanoparticles (TiO2, average diameter of 40 nm), and carbon nanotubes (MWCNT, average diameter of 25 nm) for 24 hours, a kit (CellTilter 96 Aqueous One Solution Cell Proliferation Assay, Promega Corporation, Madison, WI) for analyzing cell viability based on the activity of succinic dehydrogenase was mixed, and the degree of formazan formation in accordance with the cell viability was measured with absorbance at 490 nm.
# microglia [3] = conditions: 24 hours; remark: listed apart in the source
# Protocol: After the cells were suspended, the number of cells was measured and adjusted to the same cell number. The cells became luminescent according to the amount of ATP using a luciferin-based ATP luminescence measurement kit (Promega, USA), the luminescence degree was measured by a luminometer (LMaxII384; Molecular Devices, USA), and ChemiDoc™ Touch Gel Imaging System (Bio-Rad) was used for imaging.
compound,measurement,setting,value
O=C(O)CC(O)(CC(=O)O)C(=O)O [citric acid],decrease in the cell number due to particles,microglia [1]; 0.1 μg/μl MNPs@SiO2(RITC),mitigated
same,decrease in the cell number due to particles,"microglia [1]; 0.1 μg/μl gold nanoparticles (Au, 10 nm)",mitigated
same,decrease in the cell number due to particles,"microglia [1]; 0.1 μg/μl polystyrene microplastics (PS, 2 μm)",mitigated
same,decrease in the cell number due to particles,"microglia [1]; 0.1 μg/μl polystyrene microplastics (PS, 100 nm)",mitigated
same,decrease in the cell number due to particles,"microglia [1]; 0.1 μg/μl quantum dot nanoparticles (CdSe, 10 nm)",mitigated
same,decrease in the cell number due to particles,"microglia [1]; 0.1 μg/μl silica carbon nanotubes (MWCNT, 25 nm)",mitigated
same,decrease in the cell number due to particles,"microglia [1]; 0.1 μg/μl silica nanoparticles (SiO2, 30 nm)",mitigated
same,decrease in the cell number due to particles,"microglia [1]; 0.1 μg/μl silica nanoparticles (SiO2, 50 nm)",mitigated
same,decrease in the cell number due to particles,"microglia [1]; 0.1 μg/μl silver nanoparticles (Ag, 20 nm)",mitigated
same,decrease in the cell number due to particles,"microglia [1]; 0.1 μg/μl titanium oxide nanoparticles (TiO2, 40 nm)",mitigated
same,decrease in the cell number due to particles,"microglia [1]; 0.1 μg/μl urban particulate matters (UPM, NIST 1648A)",mitigated
same,reduction in cell viability due to nanoparticles and particulate matters,microglia [2],mitigated
same,ATP reduction induced by MNPs@SiO2(RITC),"microglia [3]; 0.01 or 0.1 μg/μl MNPs@SiO2(RITC), luminescence",inhibited
same,ATP increase compared to group treated only with MNPs@SiO2(RITC),microglia [3]; co-treated with 0.1 μg/μl MNPs@SiO2(RITC) (50 nm),30%
